ChEMBL document CHEMBL3351490, “The discovery of potent, orally bioavailable pyrimidine-5-carbonitrile-6-alkyl CXCR2 receptor antagonists” (Bioorg Med Chem Lett, 2014)
Values after ≈ are worked out from the molar mass of the structure shown.

How the values were obtained:
[1] = molecular target: T1, C-X-C chemokine receptor type 2 (Homo sapiens, UniProt P25025); experiment: Antagonist activity against human recombinant CXCR2 receptor expressed in CHO cell membranes by SPA based [35S]GTPgammaS binding assay; assay type: functional
T1 sequence (P25025 whole entry): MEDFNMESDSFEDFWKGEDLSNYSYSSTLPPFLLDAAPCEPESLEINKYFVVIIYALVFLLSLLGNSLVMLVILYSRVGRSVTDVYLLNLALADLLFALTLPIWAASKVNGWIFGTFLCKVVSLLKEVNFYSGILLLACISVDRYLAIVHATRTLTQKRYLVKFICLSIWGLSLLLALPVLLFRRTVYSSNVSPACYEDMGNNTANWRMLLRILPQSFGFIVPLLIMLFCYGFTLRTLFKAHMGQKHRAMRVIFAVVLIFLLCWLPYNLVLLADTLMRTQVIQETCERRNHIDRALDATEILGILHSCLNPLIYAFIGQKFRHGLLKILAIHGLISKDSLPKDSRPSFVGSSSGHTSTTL

[2] = molecular target: T2, C-X-C chemokine receptor type 2 (Homo sapiens) (UniProt P25025); experiment: Antagonist activity against human recombinant CXCR2 receptor expressed in CHO cell membranes at 10 uM by SPA based [35S]GTPgammaS binding assay; assay type: functional
T2 sequence (whole entry): T1 sequence (P25025 whole entry)

[3] = Protein binding in rat plasma; assay type: ADME, cell-free; conditions: read-out: PPB
[4] = Equilibrium solubility at pH 6.8; assay type: physicochemical; conditions: buffer
[5] = molecular target: T1, C-X-C chemokine receptor type 2; experiment: Displacement of [125I]-GRO-alpha from human recombinant CXCR2 receptor expressed in CHO cell membranes
[6] = Volume of distribution at steady state in iv dosed rat; assay type: ADME, organism-based; conditions: in vivo, read-out: Vdss
[7] = Oral bioavailability in rat; assay type: ADME, organism-based; conditions: in vivo
[8] = Dissociation constant, pKa of the compound; assay type: physicochemical
[9] = Half life in iv dosed rat; assay type: ADME, organism-based; conditions: in vivo
[10] = Clearance in iv dosed rat; assay type: ADME, organism-based; conditions: in vivo

Compound	IC50 [1]	inhibition [2]	other results
CC(C)(Sc1nc(O)c(C#N)c(C2CC2)n1)c1ccccc1	6.4 µM		
CC(Sc1nc(O)c(C#N)c(C2CC2)n1)c1ccccc1 (stereo not drawn)	4.8 µM		
N#Cc1c(O)nc(SCc2cccc(F)c2F)nc1C1CCCC1	4.9 µM	> 50%	
CC(C)(CO)Nc1nc(SCc2cccc(F)c2F)nc(-c2ccccc2)c1C#N	> 30 µM		
COc1ccc(-c2nc(SCc3cccc(F)c3F)nc(O)c2C#N)cc1C	4.6 µM	> 50%	
Cc1cccc(-c2nc(SCc3cccc(F)c3F)nc(O)c2C#N)c1	4.7 µM	> 50%	
N#Cc1c(O)nc(SCc2cccc(F)c2F)nc1C1CCC1	1.7 µM	> 50%	
N#Cc1c(O)nc(SCc2c(Cl)cccc2Cl)nc1-c1ccccc1	> 30 µM		IC50 [5]: 4.3 µM
Oc1nc(SCc2cccc(F)c2F)nc(C2CC2)c1I	3.2 µM		
Cc1nc(SCc2cccc(F)c2F)nc(O)c1C#N	4.3 µM	> 50%	
N#Cc1c(O)nc(CSc2cccc(F)c2F)nc1C1CC1	10 µM		
CS(=O)(=O)Nc1nc(SCc2cccc(F)c2F)nc(-c2ccccc2)c1C#N	> 30 µM		
N#Cc1c(O)nc(SCc2cccc(F)c2F)nc1-c1ccc(Cl)cc1	7.4 µM	> 50%	
CC(C)(C)c1nc(SCc2cccc(F)c2F)nc(O)c1C#N	3.7 µM	> 50%	
N#Cc1c(O)nc(CSc2ccccc2)nc1C1CC1	> 30 µM		
N#Cc1c(O)nc(SCc2cccc(F)c2F)nc1-c1ccccc1	3.7 µM		

These reach a lower IC50 [1]. Values come first.

IC50 [1]	inhibition [2]	Compound	other results
0.32 µM		Oc1cc(C2CC2)nc(SCc2cccc(F)c2F)n1	
0.007 µM		N#Cc1c(O)nc(SCc2cccc(F)c2F)nc1[C@H]1C[C@@H]1C(N)=O	
0.32 µM		CCOC(=O)[C@H]1C[C@@H]1c1nc(SCc2cccc(F)c2F)nc(O)c1C#N (stereo in doubt; form 1)	
0.51 µM		N#Cc1c(O)nc(SCc2ccccc2)nc1C1CC1	
0.78 µM	> 50%	N#Cc1c(O)nc(SCc2cccc(F)c2F)nc1-c1ccc(O)cc1	
0.14 µM	> 50%	N#Cc1c(O)nc(SCc2cccc(F)c2F)nc1C1CC1	fraction unbound [3]: < 0.01; solubility thermodynamic [4]: 10 µg/mL (≈ 31.3 µM); IC50 [5]: 0.04 µM; Vd [6]: 0.2 L/kg; bioavailability [7]: > 100%; pKa [8]: 8.9; half-life [9]: 6 h; clearance [10]: 1.6 mL/min/kg
1.5 µM		CCOC(=O)[C@H]1C[C@@H]1c1nc(SCc2cccc(F)c2F)nc(O)c1C#N (racemic)	
0.006 µM		N#Cc1c(O)nc(SCc2cccc(F)c2F)nc1[C@H]1C[C@@H]1CO	
1.4 µM	> 50%	Cc1ccc(-c2nc(SCc3cccc(F)c3F)nc(O)c2C#N)cc1	
0.71 µM	> 50%	COc1ccc(-c2nc(SCc3cccc(F)c3F)nc(O)c2C#N)cc1	
1.3 µM		CCOC(=O)[C@H]1C[C@@H]1c1nc(SCc2cccc(F)c2F)nc(O)c1C#N (stereo in doubt; form 2)	
0.9 µM	> 50%	CC(C)c1nc(SCc2cccc(F)c2F)nc(O)c1C#N	
0.01 µM		N#Cc1c(O)nc(SCc2cccc(F)c2F)nc1[C@H]1C[C@@H]1C(=O)O	
1.6 µM	> 50%	CC(C)Oc1ccc(-c2nc(SCc3cccc(F)c3F)nc(O)c2C#N)cc1	
1.4 µM		Oc1nc(SCc2cccc(F)c2F)nc(C2CC2)c1Br	
